Assay results reported in patent US20180353512A1, “COMBINATION THERAPIES FOR TREATING B-CELL MALIGNANCIES” (GILEAD SCIENCES, INC., priority 2015, published 2018).
Like-named read-outs stand apart in the source and are kept apart here.

Experiments:
Type in all cases: cell-based
FSCCL (WSU-FSCCL) = test: CellTiter Glo viability assay after 96 h; details: read-out: EC50, cell viability
Method: (§1) Idelalisib resistance was established by continuous passaging of a clonal isolate of WSU-FSCCL in the presence of 1 μM idelalisib; clonal isolates from a passage-matched line (FSCCL^S) and idelalisib-resistant line (FSCCL^R) were generated through 2 rounds of single-cell-limiting dilution. Growth inhibition to idelalisib or other inhibitors was performed after 96 h using CellTiter Glo viability assay. Characterization of mutations and gene expression were identified by whole exome sequencing and RNA-Seq, respectively. Whole cell lysates were analyzed by western blots.

TMD8 = test: CellTiter-Glo viability assay at 96 h (Example 5); details: Homo sapiens
Method: (§2) Growth inhibition to Idelalisib or other inhibitors was assessed using CellTiter-Glo viability assay at 96 h. […] Cell lines were analyzed by whole exome sequencing, RNASeq, and phosphoproteomics. Protein expression was measured using Simple Western and SDS/PAGE and western blot. Caspase 3/7 was measured using Caspase-Glo 3/7 assay; apoptosis was measured with Annexin V assay and propidium iodide by flow cytometry.
(§3) Cell viability EC50 was determined using a sigmoidal dose-response (variable slope) curve generated from quadruplicate samples. Statistical significance was determined using the student's t-test for cell viability and two-tailed paired t-test for apoptosis experiments in Prism (GraphPad).

[1] = tested on: FSCCL^R clone 3 (PI3KCA P539R); test: CellTiter Glo viability assay after 96 h
Method: as §1

FSCCL^S = test: CellTiter Glo viability assay after 96 h; details: read-out: EC50
Method: as §1

[2] = tested on: FSCCL^R clone 1 (PI3KCA E970K); test: CellTiter Glo viability assay after 96 h
Method: as §1

[3] = tested on: FSCCL^R clone 2 (PI3KCA N345K); test: CellTiter Glo viability assay after 96 h
Method: as §1

FSCCL^R SFK^HIGH = test: CellTiter Glo viability assay after 96 h
Method: as §1

[4] = tested on: TMD8^S (DMSO passage matched, idelalisib-sensitive line); test: CellTiter-Glo viability assay at 96 h; details: read-out: EC50, cell viability
Method: as §2, §3
(§4) Idelalisib-resistant (TMD8^R) cell line and passage-matched Idelalisib-sensitive (TMD8^S) cell line were generated according to the procedure described in Example 5 above. To characterize the resistant cells, cell viability assays, RNASeq of multidrug resistance (MDR) family of ABC transporter genes (N=33), apoptosis assays, and phosphoprotein analysis were performed. Cell viability was measured using CellTiter-Glo, as described in Example 1A above. Western blot and protein level analysis were performed after treatment with 420 nM idelalisib, 320 nM Compound B and combination thereof, using Peggy Sue (ProteinSimple) automated Western Blot system. Protein concentration (pg/μL) was quantitated using recombinant protein standards. Normalized AUC were determined for each of the treatment groups, normalized to actin. Apoptosis was assessed by propidium iodide and Annexin V/FITC staining and measured by flow cytometry, as described in Example 1A above. Western Blot with anti-p-AKT (S473) antibody and Peggy Sue were used to determine the phosphorylation state of downstream signaling components.

[5] = tested on: TMD8^R (Idelalisib-resistant line); test: CellTiter-Glo viability assay at 96 h; details: read-out: EC50, cell viability
Method: as §2, §3, §4

TMD8^R cells = test: Apoptosis, Annexin V assay and propidium iodide by flow cytometry; details: Annexin V at 48 h, Idelalisib=1 μM
Method: as §2

OCI-LY10 cells = test: CellTiter-Glo cell viability assay, four days (Example 1A); details: OCI-LY10; single agent
Method: (§5) In vitro anti-proliferative activity of agents was assessed using CellTiter-Glo™ Assay (Promega), which quantifies cellular ATP level. Test compounds were dissolved in DMSO to prepare 10 mM stock solutions. […] For drug combination studies, a two or three fold horizontal serial dilution pattern was used for Compound B and combined with Idelalisib using a two, three, or four fold vertical serial dilution pattern. […] The final DMSO concentration in the test media was 0.2%. Each combination used replicates of four plates to generate sufficient data for evaluation of synergy scores. […] The assay growth medium for all lines was RPMI supplemented with 20% FBS and […] penicillin-streptomycin. Seeding density was optimized for growth rate over 96 hours for each cell line and was between 10,000-30,000 cells per well of 96 well plates. After four days incubation with agents at 37° C./5% CO2, the CellTiter-Glo™ assay was performed following the manufacturer's protocol. Relative luminescence units were quantified using a Biotek Synergy luminometer.
(§6) Data from a plate was excluded if either Z′<0.5 or the growth of the cell lines was less than one doubling in the four day assay period. Z′ was calculated using the formula: Z′=[1−((3(σstau+σDMSO))/(|μDMSO−μstau|)] where σstau and σDMSO are the standard deviation of the 100% inhibited staurosporine and 0% inhibited DMSO control wells, respectively. μDMSO and μstau are the mean of the […] control wells, respectively. The raw Cell Titer Glo signal was normalized according to the following formula: [(raw value)−(100% inhibited staurosporine control)]/[(DMSO control value)−(100% inhibited staurosporine control)].
(§7) EC50 was determined using GraphPad Prism or Dose Response software by fitting the data to a four parameters variable slope model. […] For combination studies, the EC50 at each test article concentration was determined from graphs of the EC50 of one compound at a fixed dose of second compound. The EC50 shift was calculated by taking the ratio of the EC50 of the single agent by the EC50 at the maximum dose of the second agent.
(§8) Synergy was analyzed using the MacSynergy II program, which calculates a theoretical additive value for the drug combination that is based on the values generated by each drug alone using the Bliss Independence mathematical model. The Bliss independence model assumes that each drug acts independently. The theoretical additive effect for each compound is calculated and then subtracted from the actual effect. Synergy is defined by greater than expected effects while antagonism is defined by less than expected effects. In this example, a synergy volume greater than 50 was considered significant. The EC50 values determined in drug combination studies represent a single experiment run in quadruplicate and therefore may differ slightly from the single agent EC50 values.

Ri-1 cells = test: as above; details: Ri-1; single agent
Method: as §5, §6, §7, §8

TMD-8 cells = test: as above; details: TMD-8; single agent
Method: as §5, §6, §7, §8

[6] = read-out: EC50 BYL-719 (+IDELA 0.6 μm)
[7] = FIGS. 11A, 13A, printed with 1 μM of each named agent

Cc1cc([C@@H](C)Nc2ccccc2C(=O)O)c2nc(N3CCOCC3)cc(=O)n2c1 [AZD-6482] was tested, and the EC50 (FSCCL (WSU-FSCCL)) was 4.6 µM and the EC50 (TMD8) was 0.52 µM.
For Cc1nc(NC(=O)N2CCC[C@H]2C(N)=O)sc1-c1ccnc(C(C)(C)C(F)(F)F)c1 [BYL-719], the EC50 [1, 6] was 0.239 µM, the EC50 ([1]; single agent, read-out: EC50) was > 3 µM and the EC50 (FSCCL^S; PI3KCA WT, Table 13, single agent) was 1.61 µM. The EC50 [2, 6] was 0.123 µM, the EC50 ([2]; single agent, read-out: EC50) was 2.12 µM and the EC50 [3, 6] was 0.143 µM. For the same compound, the EC50 ([3]; single agent, read-out: EC50) was 1.54 µM, the EC50 (FSCCL (WSU-FSCCL)) was > 10 µM and the EC50 (TMD8) was 1.2 µM.
With Cc1nc(Nc2ncc(C(=O)Nc3c(C)cccc3Cl)s2)cc(N2CCN(CCO)CC2)n1 [Dasatinib] the EC50 (FSCCL^R SFK^HIGH; read-out: EC50 Dasatinib (+IDELA 600 nM)) was 0.015 µM, the EC50 (FSCCL^R SFK^HIGH; single agent, read-out: EC50 Dasatinib) was 0.058 µM and the EC50 (FSCCL^S; Table 14, single agent) was 0.034 µM.
With C[C@H](Nc1nc[nH]c2ncnc1-2)c1cc2cccc(Cl)c2c(=O)n1-c1ccccc1 [Duvelisib, 8-Chloro-2-phenyl-3-[(1S)-1-(3H-purin-6-ylamino)ethyl]-1(2H)-isoquinolinone] the EC50 ([4]; single agent) was 0.58 µM and the EC50 ([5]; TMD8^R, single agent) was > 4 µM.
For c1cn2cc(-c3ccc4cn[nH]c4c3)nc(Nc3ccc(N4CCOCC4)cc3)c2n1 [ENTO], the EC50 (FSCCL^R SFK^HIGH; read-out: EC50 ENTO (+IDELA 600 nM)) was 1.92 µM and the EC50 (FSCCL^S; Table 15, single agent) was 1.8 µM.
CS(=O)(=O)N1CCN(Cc2cc3nc(-c4cccc5[nH]ncc45)nc(N4CCOCC4)c3s2)CC1 [GDC-0941] was tested, and the EC50 (TMD8) was 0.027 µM.
With CNc1nc(-c2ccc3c(N)n[nH]c3c2)cc(N2C[C@@H](C(=O)NC3CCCCC3)CC[C@H]2C)n1 [GSK-2334470] the apoptosis (TMD8^R cells; GSK-2334470=1 μM, vehicle control 22%) was 21% and the EC50 [5, 7] was < 10 µM.
For C=CC(=O)N1CCC[C@@H](n2nc(-c3ccc(Oc4ccccc4)cc3)c3c(N)ncnc32)C1 [Ibrutinib, 1-[(3R)-3-[4-Amino-3-(4-phenoxyphenyl)-1H-pyrazolo[3,4-d]pyrimidin-1-yl]piperidin-1-yl]prop-2-en-1-one], the “growth of cell line” value (OCI-LY10 cells) was “inhibited the growth”, the “growth of cell line” value (Ri-1 cells) was “inhibited the growth” and the “growth of cell line” value (TMD-8 cells) was “inhibited the growth”. For the same compound, the EC50 ([4]; unit inferred) was 0.0005 µM.
In the case of NC1(c2ccc(-c3nc4ccn5c(=O)[nH]nc5c4cc3-c3ccccc3)cc2)CCC1 [MK-2206], the apoptosis (TMD8^R cells; MK-2206=1 μM, vehicle control 24%) is reported as 33% and the EC50 [5, 7] is reported as < 10 µM.
